Measurements from ChEMBL document CHEMBL3507680, “University of Dundee, Gates Library screen for HepG2 cell viability”.

Experiment: Human HepG2 cell viability assay in 384 well format
Type: toxicity, cell-based
Design: dose 125 nL, time 70.5 hour; cytotoxicity at 70.5 h: concentration not given beside the values
Conditions: HepG2 cells, read-out: Inhibition

| Structure (SMILES) | cytotoxicity at 70.5 h |
| --- | --- |
| O=C(Nc1ccc(I)cc1C(=O)NCCN1CCOCC1)c1ccco1 | 8.88% |
| COCCC(=O)N(CCC#N)c1ccc2c(c1)OCCO2 | -0.557% |
| c1ccc(OCCNC2CCN(c3ncccn3)CC2)cc1 | 2.01% |
| Cc1ccc(CN2CCC[C@@H]3CN(C(=O)c4ccco4)C[C@@H]32)o1 | -9.58% |
| O=C(CCc1ccc2c(c1)CCO2)Nc1nnn[nH]1 | -6.65% |
| CC(C)[C@@H]1CN(C(=O)c2ccc3c(c2)CCCO3)C[C@H]1NS(C)(=O)=O | -1.93% |
| CN1CCN(Cc2nnc(C3CCN(S(C)(=O)=O)CC3)n2C)CC1 | -20.6% |
| O=C(c1cnco1)N1C[C@@H](O)[C@H](Oc2cccc(F)c2)C1 | 14.4% |
| CCOC(=O)N1CCN(C(=O)C(CC)n2cccn2)CC1 (configuration not stated) | 5.86% |
| CC(C)c1nnc2n1CCN(C(=O)c1ccc(-n3cnnc3)cc1)C2 | 27.3% |
| Cc1ccsc1C(=O)N1Cc2ccccc2C2(CCN(C)CC2)C1 | -6.4% |
| CN(C)CCN1CC[C@@H]2[C@@H]1CCN2C(=O)c1cccc(Cl)c1 | -13.9% |
| COc1ccc(NC(=O)c2cnc(C3CCN(C(C)=O)C3)nc2C)cc1 (configuration not stated) | 17.3% |
| CCC(C#N)NC(=O)c1sccc1OC (configuration not stated) | -10.7% |
| Cc1nnc(C(C)Nc2cccc(COCCOC(C)C)c2)o1 (configuration not stated) | -1.57% |
| N#Cc1ccc(CNC2CCN(CCc3ccncc3)CC2)cc1 | -1.86% |
| COc1ccc(NC(C)C(=O)N2CCN(Cc3ccccc3)CC2)cn1 (configuration not stated) | -10% |
| COCCC1CCCCN1Cc1nc(C2CC2)no1 (configuration not stated) | -9.77% |
| CCC(C)(NCC(=O)OC)c1nccs1 (configuration not stated) | -2.64% |
| Cc1ccccc1C(C(=O)N(C)Cc1cnn(C)c1)N(C)C (configuration not stated) | -1.08% |
| Cc1cccc(-c2nc(CN3CCc4cnc(C)nc4C3)no2)c1 | -21.3% |
| Cc1cc(C)n(C2CCCN(C(=O)c3c(C)c(C)n[nH]c3=O)C2)n1 (configuration not stated) | -8.79% |
| O=C(c1nc(Cc2c[nH]c3ccccc23)no1)N1CCOCC1 | -3.8% |

| Structure (SMILES) | cytotoxicity at 70.5 h |
| --- | --- |
| COc1cccc2c1OCC(C(=O)NCCc1nc3c(s1)CCC3)C2 (configuration not stated) | -5.62% |
| O=C(CCN1CCCCO1)N1CCC(CO)(Cc2ccccc2)CC1 | -6.23% |
| Cc1nc2c(c(C)c1CC(=O)NCc1ccc(F)cc1)c(=O)[nH]n2C | 21.3% |
| CC(C)n1cc(CN2CCCN(C(=O)C3(C)CCOCC3)CC2)cn1 | -11.5% |
| CC(C)CC(CO)NS(=O)(=O)Cc1ccon1 (configuration not stated) | -6.44% |
| CCc1ccc(S(=O)(=O)N2Cc3c(CN(C)C)nn(C)c3C2)cc1 | -5.86% |
| CC1=N[C@@]2(CC[C@@H]3CN(S(=O)(=O)CC(C)C)C[C@@H]32)C(=O)N1CC1CC1 | 8.18% |
| CN(CC(=O)NCC(F)(F)F)Cc1nc2c(s1)CCCC2 | -9.23% |
| CC(C(=O)NS(=O)(=O)Cc1cc(-c2ccccc2)no1)C1CC1 (configuration not stated) | -1.89% |
| COCCn1c2c(ccc1=O)CC(NS(C)(=O)=O)CC2 (configuration not stated) | 16% |
| CC1Cc2ccccc2N1C(=O)Cn1nc(-c2cccs2)cc(N)c1=O (configuration not stated) | -3.41% |
| Cc1noc(C)c1CN(C)C(=O)Nc1cnn(CC2CCCO2)c1 (configuration not stated) | -16.8% |
| C=C(C)COc1cccc(C(=O)N2CCC3(CC2)CN(C)CCN3C)c1 | -7.19% |
| Cc1nn(C)c2cn(C(C)C(=O)NCc3cccnc3)nc12 (configuration not stated) | -1.5% |
| CN1CCN(Cc2cn3c(n2)CN(C(=O)c2cccn2C)CC3)CC1 | -4.16% |
| Nc1nnnn1NCc1ccccc1C(F)(F)F | -8.4% |
| CC1CCN(S(=O)(=O)NCC2CCOc3ccccc3C2)CC1 (configuration not stated) | -7.61% |
| O=C(CCc1nc2cc(Br)cnc2[nH]1)NCc1cccnc1 | -17.1% |
| Cc1nc(CN2CCc3ncnc(-c4cccnc4)c3CC2)cs1 | 42.8% |
| CC(C)c1nsc(N2CCn3c(nnc3C(F)(F)F)C2)n1 | 4.03% |
| O=C(Nc1cccnc1)C1CN(C(=O)c2ccc3c(c2)OCO3)C1 | -14.4% |
| Cc1ncc(CN2CCCC(c3nc4ccccc4n3C(C)C)C2)s1 (configuration not stated) | -2.93% |
| Cc1nnc(-c2cccc(C#N)c2)n1C1CCN(C2CC2)C1=O (configuration not stated) | 46% |

| Structure (SMILES) | cytotoxicity at 70.5 h |
| --- | --- |
| CCO[C@H]1C[C@@H](O)C12CCN(C(=O)CCN1CCCC1=O)CC2 | -9.62% |
| CCc1nccn1CC(=O)N1C[C@H]2CC[C@@H]1CN(c1ncccn1)C2 | -0.942% |
| O=C(c1ccccc1)N1CCS(=O)(=O)[C@@H]2CCNCC[C@@H]21 | 3.07% |
| CC(C)c1ccc(OCCC(=O)N(C)CC(=O)N(C)C)cc1 | 16% |
| Cc1noc(CN2CCN(CC(C)O)CC2)n1 (configuration not stated) | 2.13% |
| CS(=O)(=O)CCOCCNc1ccc(C#N)cc1F | -7.64% |
| Cc1cc(CNCc2c(C(C)C)nn(C)c2N2CCOCC2)no1 | -6.34% |
| CCCN1CCC(N(C)C(=O)c2cc(C)nc3cc(F)ccc23)CC1 | -11.9% |
| CC(CO)(NC(=O)Nc1nnc(C(F)F)s1)C1CC1 (configuration not stated) | 4% |
| COc1ccc(N(C)Cc2nc3c(cnn3C)c(=O)[nH]2)cc1OC | 0.734% |
| CN(C)C(=O)c1cccc(C2CCN(c3ncccn3)CC2)n1 | -4.03% |
| O=C(c1cnc(NCCC2CCCO2)c(Cl)c1)N1CCOCC1 (configuration not stated) | -7.98% |
| COc1ccc(CN2CC[C@H]3CO[C@H](CNC(=O)N(C)C)[C@H]3C2)cc1 | -7.9% |
| CCc1nc(C2CCCN(C(=O)c3cccc4c3ccn4C)C2)no1 (configuration not stated) | -4.32% |
| CC(=O)Nc1ccc(CNCc2cccnc2N(C)C)cc1 | 1.4% |
| C1CCCN(c2nc(C3CC3)no2)CC1 | 1.49% |
| CC(C)Nc1nc2c(s1)C(=O)CN(C(=O)NCCc1ccccc1)C2 | -4.98% |
| Nc1cc(N2CCCC(Cc3ccc(F)cc3F)(C(=O)O)C2)ncn1 (configuration not stated) | -5.98% |
| CCCC(=O)Nc1cc2c(cc1OC)NC(=O)CC2c1ccc(CC)o1 (configuration not stated) | 22.1% |
| OC(CNCCn1cccn1)COc1ccc2ccccc2c1 (configuration not stated) | -0.315% |
| NC(=O)C1CCN(C(=O)CCn2c(C(F)(F)F)cc3cccnc32)CC1 | 3.01% |
| CS(=O)(=O)N1CC[C@]2(O)CCN(c3ccnc(N)n3)C[C@@H]2C1 | -0.327% |
| Cc1cc(-c2nn(C)c(Cl)c2CN2CC[C@H](CO)[C@@H](O)C2)no1 | 8.05% |

| Structure (SMILES) | cytotoxicity at 70.5 h |
| --- | --- |
| CN(Cc1ccn[nH]1)Cc1c[nH]nc1-c1ccc(F)cc1 | -3.15% |
| CCc1cc(NCCc2cccnc2)n2nc(C)c(C)c2n1 | -5.81% |
| Cc1nocc1C(=O)N1CCCC2(CCN(c3cnn(C)c3)C2=O)C1 (configuration not stated) | -3.71% |
| O=C(c1ccncn1)N1CCC[C@]2(C[C@@H](OCc3ccccn3)CO2)C1 | 10.5% |
| COCC1CCN(C(=O)c2cc(O)nc(CC(C)C)c2)CC1 | -7.27% |
| O=C(c1ccc2nccn2c1)N(CCO)Cc1ccccc1F | 3.35% |
| CCC(=O)N1CCCC(c2nc(N(C)C)ncc2-c2ccc(F)cc2)C1 (configuration not stated) | 3.25% |
| CC(C)N1[C@@H](C(=O)NCC2CC2)C[C@@H]2CN(Cc3ccco3)C[C@@H]21 | -13.6% |
| O=C(c1ccccn1)N1C[C@@H]2CC[C@H](C1)N(C(=O)CCc1ccsc1)C2 | -10.8% |
| Cc1ccc2nc(C(=O)N3CC(c4cccnc4)C3)cn2c1 | -6.09% |
| CCOCc1cnc2n1CCN(C(=O)c1ccccc1)C2C (configuration not stated) | 19.2% |
| CCC(=O)N1CCC(c2nc(O)c3c(n2)CN(C2CCCCC2)CC3)C1 (configuration not stated) | 31.2% |
| CCc1nc(C)c(C(=O)NCCNc2ncccc2C#N)s1 | 19.3% |
| CNC(=O)CCN1CCC(c2nnc(Cn3cccn3)n2C2CC2)CC1 | -8.33% |
| Cc1nc(CN2CCO[C@@H]3CN(Cc4ccccn4)CC[C@@H]3C2)cs1 | -6.11% |
| Cc1nc(Nc2ncccn2)cc(C2CCCN2CC(C)C)n1 (configuration not stated) | 43.1% |
| Cc1[nH]c2ccc(Cl)cc2c1CCNc1ncnc2c1CCNC2 | -6.2% |
| Cn1c(C(N)=O)ccc1-c1ccccc1 | 6.66% |
| CC1=N[C@@]2(CC[C@@H]3CN(Cc4ccccc4C)C[C@@H]32)C(=O)N1CC1CC1 | -9.24% |
| Cc1cc(C)n(CC2CN(Cc3nc4ccccc4s3)CCO2)n1 (configuration not stated) | -5.7% |
| CC[C@H]1N(Cc2ccc(OC)cc2)CCC[C@]12CCC(=O)N2C | -13% |
| Cc1noc(C)c1C(=O)N(C)C(C)c1cccnc1 (configuration not stated) | -15.6% |
| O=c1[nH]cccc1-c1nccc(C2(c3ccccc3Cl)CCNCC2)n1 | 29.1% |

| Structure (SMILES) | cytotoxicity at 70.5 h |
| --- | --- |
| O=C(C1CCCC1)N1CCCC([C@@H]2C[C@H](C(F)F)n3ncnc3N2)C1 (some centres not stated) | -6.92% |
| Cc1ccc(OCC(O)Cn2ncc3cnn(C)c(=O)c32)cc1 (configuration not stated) | -6.88% |
| Cc1ccc(C(=O)NC2CCN(C(=O)Nc3ccncc3)CC2)o1 | -13.5% |
| Cc1cc(CN(C)C(=O)c2ccc(F)c(C(F)(F)F)c2)no1 | -1.4% |
| CCn1cc(C(=O)N2CCCN(c3cccnn3)CC2)c2ccccc21 | 14.2% |
| CC(=O)N1CCCN(c2nccc(-c3cn(C)nc3C)n2)CC1 | -2.77% |
| CCN1CCC2(CC1)CC(NC(=O)c1csnn1)c1ccccc1O2 (configuration not stated) | -7.53% |
| CCCC(=O)NCCc1nc(N(C)C)ncc1-c1ccncc1 | -7.54% |
| Cc1ncsc1C(=O)N1CCC(O)(CN2CCc3ccccc3C2)C1 (configuration not stated) | 10.1% |
| CSc1ccc(OCCN2CCNC(=O)CC2)cc1 | -7.88% |
| CS(=O)(=O)NCCNC(=O)c1cnc(-c2ccccc2)nc1 | -4.82% |
| CCN(CC)CCSc1nnc(N2CCN(c3ccccc3)CC2)s1 | -2.44% |
| CCCc1cc(C(=O)N[C@@H]2CCC[C@@H](N3CCCC3)[C@@H]2O)no1 | -4% |
| COC(CNC(=O)c1ccc[nH]1)c1cccc(Cl)c1 (configuration not stated) | 10.5% |
| CCOCCCNC(=O)c1nn(CC)cc1Cl | 21.2% |
| Cc1nc(-c2ccsc2)ccc1C(=O)NCCC1CCCO1 (configuration not stated) | 28.6% |
| O=C1CCC2(CCN(Cc3cc(F)cc(F)c3)CC2)CN1CCO | -1.2% |
| COC(CNC(=O)C1CCN(S(C)(=O)=O)CC1)c1ccc(C)s1 (configuration not stated) | -12% |
| CNC(=O)c1nc(Cn2ncc3ccccc3c2=O)no1 | -3.17% |
| Cc1nc(C(=O)Nc2cccnc2)c(C(C)C)s1 | -6.88% |
